From patent US20050112573A1, “Method of detecting toxic substance” (priority 2001, published 2005)

System: yeast genes (level of expressed mRNA)
Test: DNA chip analysis of expressed mRNA of yeast genes after 2 h culture with a toxic chemical substance
Format: cell-based, Saccharomyces cerevisiae S288C
Conditions: for The level of expressed mRNA in the presence of chemical substance/ (ratio to absence): transport facilitation protein gene; for The level of expressed mRNA in the presence of chemical substance/: ratio to no chemical; for The level of expressed mRNA in the presence of chemical substance/ (ratio to absence of chemical substance): stress protein genes, DNA chip
Method in brief: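 S. cerevisiae S288C grown at 25° C in YPD; toxicant added at log phase at growth-inhibitory, non-lethal levels for 2 h, untreated cells as control. Poly(A) mRNA reverse-transcribed with Cy3/Cy5-dUTP, hybridized to whole-genome chip at 65° C >12 h; value is fluorescence ratio versus untreated.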

sodium dodecylbenzosulfonate [(17)]
level of expressed mRNA in the presence of chemical substance/in its absence (gene YNL037C): 0.9 | level of expressed mRNA in the presence of chemical substance/in its absence (gene YNL045W): 1.1 | The level of expressed mRNA in the presence of chemical substance/absence: YNL058C (gene YNL058C): 0.8 | The level of expressed mRNA in the presence of chemical substance/absence: YNL063W (gene YNL063W): 0.9 | level of expressed mRNA in the presence of chemical substance/in its absence (gene YNL104C): 0.9 | level of expressed mRNA in the presence of chemical substance/in its absence (gene YNL106C): 1.1 | level of expressed mRNA in the presence of chemical substance/in its absence (gene YNL130C): 0.7 | level of expressed mRNA in the presence of chemical substance/in its absence (gene YNL169C): 1.1 | The level of expressed mRNA in the presence of chemical substance/absence: YNL176C (gene YNL176C): 0.6 | The level of expressed mRNA in the presence of chemical substance/absence: YNL181W (gene YNL181W): 0.8 | The level of expressed mRNA in the presence of chemical substance/absence: YNL191W (gene YNL191W): 0.5 | The level of expressed mRNA in the presence of chemical substance/absence: YNL194C (gene YNL194C): 0.8 | The level of expressed mRNA in the presence of chemical substance/absence: YNL200C (gene YNL200C): 1.2 | The level of expressed mRNA in the presence of chemical substance/absence: YNL212W (gene YNL212W): 0.9 | level of expressed mRNA in the presence of chemical substance/in its absence (gene YNL231C): 3.1 | The level of expressed mRNA in the presence of chemical substance/absence: YNL253W (gene YNL253W): 1.1 | The level of expressed mRNA in the presence of chemical substance/absence: YNL265C (gene YNL265C): 0.9 | The level of expressed mRNA in the presence of chemical substance/absence: YNL276C (gene YNL276C): 1.1 | level of expressed mRNA in the presence of chemical substance/in its absence (gene YNL322C): 0.9 | level of expressed mRNA in the presence of chemical substance/in its absence (gene YNR002C): 1.5 | level of expressed mRNA in the presence of chemical substance/in its absence (gene YNR019W): 2.4 | level of expressed mRNA in the presence of chemical substance/in its absence (gene YNR033W): 0.9 | The level of expressed mRNA in the presence of chemical substance/absence: YNR051C (gene YNR051C): 0.7 | level of expressed mRNA in the presence of chemical substance/in its absence (gene YNR059W): 2.6 | The level of expressed mRNA in the presence of chemical substance/absence: YOL026C (gene YOL026C): 2.1 | The level of expressed mRNA in the presence of chemical substance/absence: YOL030W (gene YOL030W): 0.9 | level of expressed mRNA in the presence of chemical substance/in its absence (gene YOL058W): 1.2 | level of expressed mRNA in the presence of chemical substance/in its absence (gene YOL126C): 1.6 | level of expressed mRNA in the presence of chemical substance/in its absence (gene YOL143C): 1.8 | level of expressed mRNA in the presence of chemical substance/in its absence (gene YOL153C): 1.1 | level of expressed mRNA in the presence of chemical substance/in its absence (gene YOL157C): 1.4 | The level of expressed mRNA in the presence of chemical substance/absence: YOR022C (gene YOR022C): 1.1 | The level of expressed mRNA in the presence of chemical substance/absence: YOR087W (gene YOR087W): 0.8 | The level of expressed mRNA in the presence of chemical substance/absence: YOR088W (gene YOR088W): 0.7 | level of expressed mRNA in the presence of chemical substance/in its absence (gene YOR099W): 1.2 | level of expressed mRNA in the presence of chemical substance/in its absence (gene YOR130C): 1.5 | level of expressed mRNA in the presence of chemical substance/in its absence (gene YOR136W): 0.8 | The level of expressed mRNA in the presence of chemical substance/absence: YOR138C (gene YOR138C): 1.1 | The level of expressed mRNA in the presence of chemical substance/absence: YOR155C (gene YOR155C): 0.8 | The level of expressed mRNA in the presence of chemical substance/absence: YOR253W (gene YOR253W): 0.9 | The level of expressed mRNA in the presence of chemical substance/absence: YOR267C (gene YOR267C): 1.3 | The level of expressed mRNA in the presence of chemical substance/absence: YOR325W (gene YOR325W): 0.8 | level of expressed mRNA in the presence of chemical substance/in its absence (gene YOR336W): 1.0 | level of expressed mRNA in the presence of chemical substance/in its absence (gene YOR344C): 1.3 | level of expressed mRNA in the presence of chemical substance/in its absence (gene YOR347C): 1.7 | The level of expressed mRNA in the presence of chemical substance/absence: YPL005W (gene YPL005W): 1.2 | level of expressed mRNA in the presence of chemical substance/in its absence (gene YPL017C): 1.3 | The level of expressed mRNA in the presence of chemical substance / the level in the absence of chemical substance, yeast gene YPL107W (gene YPL107W, DNA chip fluorescence ratio to control without chemical, 2 hours culture with chemical, growth-inhibiting non-lethal concentration): 1.0 | The level of expressed mRNA in the presence of chemical substance / the level in the absence of chemical substance, yeast gene YPL138C (gene YPL138C, DNA chip fluorescence ratio to control without chemical, 2 hours culture with chemical, growth-inhibiting non-lethal concentration): 0.8 | The level of expressed mRNA in the presence of chemical substance/absence: YPL150W (gene YPL150W): 1.4 | The level of expressed mRNA in the presence of chemical substance/absence: YPL151C (gene YPL151C): 0.8 | The level of expressed mRNA in the presence of chemical substance/absence: YPL152W (gene YPL152W): 1.2 | The level of expressed mRNA in the presence of chemical substance/absence: YPL168W (gene YPL168W): 1.1 | The level of expressed mRNA in the presence of chemical substance/absence: YPL180W (gene YPL180W): 1.0 | The level of expressed mRNA in the presence of chemical substance/absence: YPL188W (gene YPL188W): 0.7 | The level of expressed mRNA in the presence of chemical substance/absence: YPL221W (gene YPL221W): 1.5 | The level of expressed mRNA in the presence of chemical substance/absence: YPL225W (gene YPL225W): 1.0 | The level of expressed mRNA in the presence of chemical substance/absence: YPL249C (gene YPL249C): 0.8 | The level of expressed mRNA in the presence of chemical substance/absence: YPL260W (gene YPL260W): 0.8 | level of expressed mRNA in the presence of chemical substance/in its absence (gene YPL265W): 0.5 | level of expressed mRNA in the presence of chemical substance/in its absence (gene YPR006C): 1.8 | level of expressed mRNA in the presence of chemical substance/in its absence (gene YPR026W): 0.9 | The level of expressed mRNA in the presence of chemical substance/absence: YPR049C (gene YPR049C): 1.0 | The level of expressed mRNA in the presence of chemical substance/absence: YPR061C (gene YPR061C): 1.1 | The level of expressed mRNA in the presence of chemical substance/absence: YPR093C (gene YPR093C): 1.4 | The level of expressed mRNA in the presence of chemical substance/absence: YPR146C (gene YPR146C): 1.0 | The level of expressed mRNA in the presence of chemical substance/absence: YPR148C (gene YPR148C): 0.9 | The level of expressed mRNA in the presence of chemical substance/absence: YPR150W (gene YPR150W): 0.9 | The level of expressed mRNA in the presence of chemical substance/absence: YPR158W (gene YPR158W): 0.9 | The level of expressed mRNA in the presence of chemical substance/absence: YPR169W (gene YPR169W): 1.1 | The level of expressed mRNA in the presence of chemical substance/absence: YPR172W (gene YPR172W): 1.1 | The level of expressed mRNA in the presence of chemical substance/absence: YPR174C (gene YPR174C): 1.4 | The level of expressed mRNA in the presence of chemical substance/in the absence of chemical substance (yeast gene YAL023C): 1.0 | The level of expressed mRNA in the presence of chemical substance/in the absence of chemical substance (yeast gene YAL060W): 1.1 | The level of expressed mRNA in the presence of chemical substance/in the absence of chemical substance (yeast gene YAL062W): 1.0 | The level of expressed mRNA in the presence of chemical substance/ (ratio to absence) (yeast gene YAL067C): 1.0 | The level of expressed mRNA in the presence of chemical substance/The level of expressed mRNA in the absence of chemical substance (yeast gene YAR010C): 1.5 | The level of expressed mRNA in the presence of chemical substance/The level of expressed mRNA in the absence of chemical substance (yeast gene YBL005W-A): 1.3 | The level of expressed mRNA in the presence of chemical substance/ (ratio to absence) (yeast gene YBL030C): 1.0 | The level of expressed mRNA in the presence of chemical substance/ (ratio to absence), gene YBL038W (yeast gene YBL038W, mitochondria-located protein genes, 2 h culture with chemical): 1.2 | The level of expressed mRNA in the presence of chemical substance/The level of expressed mRNA in the absence of chemical substance (yeast gene YBL041W): 1.3 | The level of expressed mRNA in the presence of chemical substance/The level of expressed mRNA in the absence of chemical substance (yeast gene YBL043W): 2.3 | The level of expressed mRNA in the presence of chemical substance/ (yeast gene YBL065W): 1.1 | The level of expressed mRNA in the presence of chemical substance/The level of expressed mRNA in the absence of chemical substance (yeast gene YBL078C): 1.8 | The level of expressed mRNA in the presence of chemical substance/ (ratio to absence of chemical substance) (yeast gene YBL093C): 1.4 | The level of expressed mRNA in the presence of chemical substance/ (ratio to absence) (yeast gene YBL099W): 0.7 | The level of expressed mRNA in the presence of chemical substance/in the absence of chemical substance (yeast gene YBR006W): 1.2 | The level of expressed mRNA in the presence of chemical substance/ (in its absence), gene YBR036C (yeast gene YBR036C, ratio of DNA chip fluorescence intensity to that without chemical substance): 2.1 | The level of expressed mRNA in the presence of chemical substance/ (ratio to absence of chemical substance) (yeast gene YBR044C): 0.9 | The level of expressed mRNA in the presence of chemical substance/ (yeast gene YBR047W): 1.3 | The level of expressed mRNA in the presence of chemical substance/ (ratio to absence) (yeast gene YBR052C): 1.8 | The level of expressed mRNA in the presence of chemical substance/in the absence of chemical substance (yeast gene YBR056W): 2.4 | The level of expressed mRNA in the presence of chemical substance/ (ratio to absence) (yeast gene YBR068C): 1.1 | The level of expressed mRNA in the presence of chemical substance/ (yeast gene YBR101C): 0.9
